In patent US10287615B2, “Sophorolactone production” (ECOVER CO-ORDINATION CENTER N.V., priority 2011, dated 2019):

Assays:
[1] = Storage stability of non-aqueous sophorolactone solution, HPLC-ELSD; assay type: physicochemical; conditions: for acid sophorolipid peak (hydrolysis of lactone), share of the total peak area: 10 g sophorolactone in 90 g ethyllactate or isoamyl lactate
Experimental: Both samples were split in 50 ml samples and stored at 4° C. and at 40° C. respectively. After 2 months of storage they were analyzed with HPLC-ELSD. The results are as illustrated by the chromatograms depicted in FIG. 7 and FIG. 8. After 2 months of storage at either 4° C., result depicted in FIG. 7, or 40° C., result depicted in FIG. 8, of this non-aqueous sophorolactone solution only a negligible hydrolysis of lactone material occurred as evidenced by an acid sophorolipid peak appearing at 30.5 min in the grey overlay graph. This peak represents less than 1% of the total peak area.

[2] = Static surface tension, pending drop method on a Krüss DSA100 tensiometer; assay type: physicochemical; conditions: water 71.26
Experimental: The lactone obtained in Example 10 was partially hydrolysed in degrees ranging from 0 to 2 equivalents using potassium hydroxide. Partial alkaline hydrolysis in this context implies that less than 3 mol KOH were added per mol lactone. As a consequence only part of the 3 ester bonds, i.e. the lactonic bond and the two acetyl ester bonds, was hydrolysed and a mixture of various sophorolipids formed.
The static surface tension of the partial hydrolysates obtained in the above described experiment was measured according to the pending drop method on a Krüss DSA100 tensiometer.

[3] = Stain removal efficacy in automatic dishwashing on soil plates; conditions: for average Rw (Y reflection value for washed): 1.4% surfactant in base formula, 50° C. eco; for soil removal: Rw minus Rs
From the text: A sophorolipid lactone sample obtained from the experiment described in Example 8 was centrifuged, spread out on Torck paper and allowed to air dry. The resulting solid was crushed with a coffee mill to a fine powder and dried further with compressed air to >98 wt %. This powder was compared as to its efficiency in automatic dishwashing versus a low foaming alkylpolyglucoside, in particular Simulsol AS48, available from Seppic SA, at equal active matter content. […] 20 gram of the base formula was dosed in a ZDF211 dishwasher. Program D 50° C. eco was run.
In the automatic dishwasher 7 types of soil plates (available from CFT, Vlaardingen, The Netherlands) mounted in a stainless steel holding frame were inserted.

- storage stability of non-aqueous solution (chromatogram overlay) ([1]; 2 months of storage at 40° C.): storage stable
- acid sophorolipid peak (hydrolysis of lactone), share of the total peak area ([1]; 2 months of storage at 4° C.): less than 1%
- acid sophorolipid peak (hydrolysis of lactone), share of the total peak area ([1]; 2 months of storage at 40° C.): less than 1%
- storage stability of non-aqueous solution (chromatogram overlay) ([1]; storage at 4° C. for 2 months): storage stable
- Surface tension ([2]; Conc. 10 ppm): 71.00 mN/m
- Surface tension ([2]; Conc. 50 ppm): 66.21 mN/m
- Surface tension ([2]; Conc. 100 ppm): 63.02 mN/m
- Surface tension ([2]; Conc. 250 ppm): 47.67 mN/m
- Surface tension ([2]; Conc. 1000 ppm): 36.69 mN/m
- Surface tension ([2]; Conc. 2000 ppm): 36.26 mN/m
- Surface tension ([2]; Conc. 5000 ppm): 35.85 mN/m
- Surface tension ([2]; Conc. 10000 ppm): 35.33 mN/m
- Surface tension ([2]; Conc. 25000 ppm): 35.54 mN/m
- Surface tension ([2]; Conc. 50000 ppm): 35.14 mN/m
Substance: sophorolactone
- soil removal rates, overall comparison ([3]; automatic dishwashing, equal active matter content, alkaline pH of about 9.8): superior to Simulsol AS48
- average Rw (Y reflection value for washed) ([3]; stain Cheese DM06): 41.9
- soil removal ([3]; stain Cheese DM06): 16.9
- average Rw (Y reflection value for washed) ([3]; stain Chocolate DM75): 24.9
- soil removal ([3]; stain Chocolate DM75): 7.1
- average Rw (Y reflection value for washed) ([3]; stain Coffee DM81): 77.5
- soil removal ([3]; stain Coffee DM81): 7.3
- average Rw (Y reflection value for washed) ([3]; stain Egg yolk/milk DM31): 52.0
- soil removal ([3]; stain Egg yolk/milk DM31): 6.8
- average Rw (Y reflection value for washed) ([3]; stain Mix starch DM77): 37.6
- soil removal ([3]; stain Mix starch DM77): 1.6
- average Rw (Y reflection value for washed) ([3]; stain Red wine DM51): 72.4
- soil removal ([3]; stain Red wine DM51): 17.1
- average Rw (Y reflection value for washed) ([3]; stain Tea DM11): 75.7
- soil removal ([3]; stain Tea DM11): 14.6
